Results: patent publication US20240270811A1, “Glycosylated Neuropeptide Derivative, Pharmaceutical Composition, Intranasal/Nasal Drop Formulation, and Use of Pharmaceutical Composition” (Tokyo University of Science Foundation, priority 2021, published 2024)
Where no end group is shown, it is not given here. The star is where a group is joined. Cam = NC(=O)C*

Legend:
[1] = Solubility of GLP-2/GLP-1 derivatives with respect to aqueous medium (PBS); type: physicochemical
Method: Samples were prepared by dispensing a Milli-Q aqueous solution of PAS-CPP-GLP-2 (no sugar), PAS-CPP-GLP-2 (5-sugar) or PAS-CPP-GLP-2 (11-sugar) to a microtube by an amount of 5 nmol/tube, 30 nmol/tube, 60 nmol/tube, 120 nmol/tube or 200 nmol/tube, and freeze-drying the same. The freeze-dried samples were added with […] of PBS (Dulbecco's Phosphate Buffered Saline; Sigma-Aldrich, herein after the same), subjected to ultrasonic treatment, and allowed to stand overnight. Thereafter, the concentration of the peptide was measured. Specifically, a supernatant obtained by centrifuging the sample suspension was subjected to the measurement of OD (280 nm) with a spectrometer (NanoDrop™ 2000c spectrometer; Thermo Fisher Scientific K.K.)
Administration solutions were prepared by mixing a PAS-CPP-GLP-2 derivative (no sugar) or a PAS-CPP-GLP-2 derivative (11-sugar) with PBS. […] The concentration of each GLP-2 derivative was adjusted to 0.6 nmol/4 μL.
(§1) The concentration of a PAS-CPP-GLP-2 derivative (no sugar) or a PAS-CPP-GLP-2 derivative (11-sugar) was adjusted to 3.0 nmol/4 μL.

[2] = Migration to central nervous system, optical imaging of brain sagittal sections (ICG-labelled derivatives); type: in vivo, mouse; settings: 3.0 nmol/4 μL intranasal
Method: Administration solutions were prepared by completely dissolving a PAS-CPP-GLP-2 derivative (no sugar) labelled with ICG or a PAS-CPP-GLP-2 derivative (11-sugar) labelled with ICG in DMSO, and adjusting the final concentration of DMSO to 16% by adding PBS.
as §1
After anesthetizing mice with isoflurane using an all-in-one small animal anesthetizer, the administration solutions or 16% DMSO as a control was intranasally administered to the mice by the amount of 2 μL per nose cavity, 4 μL in total.
In order to observe the migration to the brain over time, the brain was isolated 5 minutes, 10 minutes, 20 minutes, 60 minutes and 90 minutes after the intranasal administration, respectively, and subjected to infiltration fixation with 4% paraformaldehyde (4% PFA) solution overnight. Subsequently, a sagittal section with a thickness of 2 mm at the left and the right from the center of the brain was prepared using a brain matrix (RBM-2000S, ASI). The section was placed in a dish and analyzed with an optical imaging apparatus (Clairvivo OPT plus, Shimadzu Corporation) at an excitation wavelength of 785 nm, fluorescence wavelength of 849 nm, and an exposure time: 6 seconds.

[3] = Amount of migration to brain quantified by GLP-2 ELISA; type: in vivo; settings: 6.0 nmol/mouse intranasal, brain isolated 20 minutes after administration
Method: Mice were intranasally administered with 16% DMSO or GLP-2 derivatives (6.0 nmol/mouse). The brain was isolated 20 minutes after the administration, and homogenized with BioMasher II (Nippi, Tokyo, Japan). A sample was prepared by performing centrifugal separation by 1000×g for 15 minutes and collecting a supernatant. The amount of a GLP-2 derivative in the sample was quantified using a GLP-2 ELISA kit. Specifically, a cleaning process including filling each well of a measurement plate with a cleaning fluid (350 μL) and suctioning the cleaning fluid with a pipette was performed three times. Subsequently, a labeled antigen solution (40 μL), a sample (25 μL) and a specific antibody solution (50 μL) were added in this order to the well and mixed. The measurement plate was tightly sealed and allowed to stand for 18 hours at 4° C. The cleaning process was performed three times, and a SA-HRP solution (100 μL) was added and allowed to permeate for 1.5 hours at room temperature (60 rpm). […] Finally, an enzyme reaction stop solution (100 μL) was added and an absorbance at 490 nm was measured with ARVO (PerkinElmer Japan Co., Ltd., Kanagawa, Japan) to calculate the concentration of a GLP-2 derivative.

[4] = system: 7-week-old male ddY mouse; experiment: Forced swim test (FST) after intranasal administration; type: in vivo; settings: 16% DMSO in PBS, 0.6 nmol/mouse intranasal, 20 minutes before test session
Method: Administration solutions were prepared by completely dissolving PAS-CPP-GLP-2 derivative (no sugar) or PAS-CPP-GLP-2 derivatives (11-sugar, 5-sugar) in DMSO and adding PBS such that the final concentration of DMSO was 16% by mass. The concentration of each GLP-2 derivative was adjusted to 0.6 nmol/4 μL.
After anesthetizing mice with isoflurane using an all-in-one small animal anesthetizer (MK-AT210D, Muromachi Kikai Co., Ltd., hereinafter the same), the solution was intranasally administered to the mice. Specifically, the intranasal administration was performed by contacting a tip of the anesthetizer to a nasal cavity in a horizontal manner such that the solution was inhaled by spontaneous respiration, by the amount of 2 μL per nose cavity, 4 μL in total (0.6 nmol/mouse). […]
A 7-week-old male ddY mouse is placed in a transparent plastic cylinder with a diameter of 18 cm and a height of 50 cm containing water at a temperature of 25° C.±1° C. to a height of 7 cm, and is allowed to swim for 15 minutes. […] The behavior of the mouse is recorded over the test session with a video camera. […] The time during which the mouse is in a state of immobility (immobility time) is measured in the first 6 minutes from the start of the test session. The existence or non-existence of anti-depressant-like effects is determined by the length of the immobility time. […]

FFLIPKGRRRRRRRRGGHADGSFSDEMNTILDNLAARDFINWLIQTKITDC(Cam)-OH [PAS-CPP-GLP-2 (no sugar), reference compound]
solubility with respect to PBS (FIG. 1) [1]: not dissolved in PBS at all
fluorescence in brain section ([2]; 10 minutes after administration): fluorescence was observed at a region around the hippocampus
fluorescence in brain section ([2]; 20 minutes after administration): fluorescence was observed
fluorescence in brain section ([2]; 60 minutes after administration): fluorescence was not observed
amount of GLP-2 derivative in brain [3]: below the detection limit

glucagon-like peptide-2 (HADGSFSDEMNTILDNLAARDFINWLIQTKITD; GLP-2)
immobility time / anti-depressant-like effect vs control group [4]: did not show a significant decrease in immobility time
